Earlier results on one substance are cited in patent publication US12374423B2, “Systems and methods for MHC class II epitope prediction” (priority 2017, dated 2025).

This series deals with ovarian carcinoma patients. The note with it: poly-ICLC in combination with a NY-ESO-1 peptide vaccine (in addition to Montanide), phase 1; cited from earlier work.

Some results are limits rather than exact numbers.

As to “Polyinosinic-Polycytidylic Acid-poly-L-lysine Carboxymethylcellulose [poly-ICLC]”, the “patients showing induction of CD4+ and CD8+ T cell, as well as antibody responses to the peptide” value was more than 90%.
